This is an account of results in the supplement of paper PMC6045584.

Compound in one experiment: COc1cc([C@@H]2c3cc4c(cc3[C@@H](O[C@@H]3O[C@@H]5CO[C@@H](C)O[C@H]5[C@H](O)[C@H]3O)[C@H]3COC(=O)[C@H]23)OCO4)cc(OC)c1O [ETOPOSIDE]
As to the kind of experiment: surviving fraction relative to DMSO-only wells; higher = less growth inhibition. The following applies: exposure time: 5 days. An outline of the steps: (§1)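 At 250–500 cells per well in 384-well plates, log-phase tumour cell lines were seeded and, 24 hours on, exposed continuously for five days to inhibitors at 0.5, 1, 5, 10, 50, 100, 500 and 1000 nM. Viability readout was CellTiter-Glo luminescence, reported as surviving fraction normalised to the median of DMSO-only wells.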

Compound in experiment [1]: Cc1nc(Nc2n[nH]c3c2CN(C(=O)N[C@H](CN(C)C)c2ccccc2)C3(C)C)c2sccc2n1
Described as above. The following applies: exposure time: 5 days. The gist of the method: as §1

± gives the standard deviation of the averaged measurements.

In the case of HMLE3 BREAST, the surviving fraction with ETOPOSIDE (0.5 nM) came out at 1.02 ± 0.052; in the experiment with ETOPOSIDE (1 nM), 0.974 ± 0.06; in the experiment with ETOPOSIDE (5 nM), 1.01 ± 0.027; with ETOPOSIDE (10 nM), 0.9737 ± 0.0075; in the experiment with ETOPOSIDE (50 nM), 0.826 ± 0.018; with ETOPOSIDE (100 nM), 0.589 ± 0.06. The surviving fraction turned out to be 0.279 ± 0.045 with ETOPOSIDE (500 nM); 0.27 ± 0.017 with ETOPOSIDE (1000 nM); 1.01 ± 0.11 in experiment [1] (0.5 nM); 0.883 ± 0.026 in experiment [1] (1 nM); 0.295 ± 0.02 in experiment [1] (5 nM); 0.144 ± 0.0049 in experiment [1] (10 nM). Further, the surviving fraction in experiment [1] (50 nM) was found to be 0.0967 ± 0.012; in experiment [1] (100 nM), 0.092 ± 0.0036; in experiment [1] (500 nM), 0.066 ± 0.0082; in experiment [1] (1000 nM), 0.055 ± 0.002.

Regarding HMT3552 BREAST, the surviving fraction in the experiment with ETOPOSIDE (0.5 nM) came out at 1.05; with ETOPOSIDE (1 nM), 1.05; with ETOPOSIDE (5 nM) it was 1.04; in the experiment with ETOPOSIDE (10 nM), 0.998; with ETOPOSIDE (50 nM), 1.14; with ETOPOSIDE (100 nM) it was 1.03. The surviving fraction stood at 0.347 with ETOPOSIDE (500 nM); 0.22 with ETOPOSIDE (1000 nM); 0.986 in experiment [1] (0.5 nM); 0.77 in experiment [1] (1 nM); 0.376 in experiment [1] (5 nM); 0.287 in experiment [1] (10 nM). In addition, the surviving fraction was found to be 0.219 in experiment [1] (50 nM), 0.212 in experiment [1] (100 nM), 0.17 in experiment [1] (500 nM) and 0.136 in experiment [1] (1000 nM).

For HOS BONE, the surviving fraction worked out at 1.01 ± 0.011 with ETOPOSIDE (0.5 nM); 1.02 ± 0.033 with ETOPOSIDE (1 nM); 1.02 ± 0.018 with ETOPOSIDE (5 nM); 1.019 ± 0.0095 in the experiment with ETOPOSIDE (10 nM); 0.978 ± 0.01 with ETOPOSIDE (50 nM); 0.707 ± 0.033 in the experiment with ETOPOSIDE (100 nM). In addition, the surviving fraction was 0.0687 ± 0.0011 with ETOPOSIDE (500 nM); 0.067 ± 0.0056 with ETOPOSIDE (1000 nM); 1.02 ± 0.018 in experiment [1] (0.5 nM); 0.957 ± 0.014 in experiment [1] (1 nM); 0.583 ± 0.02 in experiment [1] (5 nM); 0.409 ± 0.03 in experiment [1] (10 nM). In addition, the surviving fraction in experiment [1] (50 nM) is 0.234 ± 0.015; in experiment [1] (100 nM) it was 0.233 ± 0.0055; in experiment [1] (500 nM), 0.194 ± 0.0038; in experiment [1] (1000 nM), 0.112 ± 0.0079.

Regarding HOSMNG BONE, the surviving fraction with ETOPOSIDE (0.5 nM) was determined as 0.958 ± 0.1; in the experiment with ETOPOSIDE (1 nM), 0.984 ± 0.056; with ETOPOSIDE (5 nM) it was 0.976 ± 0.024; with ETOPOSIDE (10 nM), 1.01 ± 0.023; with ETOPOSIDE (50 nM) it was 1.02 ± 0.021; with ETOPOSIDE (100 nM), 1.04 ± 0.018. Moreover, the surviving fraction with ETOPOSIDE (500 nM) came to 0.956 ± 0.079; with ETOPOSIDE (1000 nM), 0.78 ± 0.021; in experiment [1] (0.5 nM), 0.981 ± 0.063; in experiment [1] (1 nM), 0.995 ± 0.065; in experiment [1] (5 nM), 1.02 ± 0.11; in experiment [1] (10 nM) it was 0.944 ± 0.025. Also, the surviving fraction in experiment [1] (50 nM) was 0.821 ± 0.042; in experiment [1] (100 nM), 0.622 ± 0.029; in experiment [1] (500 nM) it was 0.399 ± 0.024; in experiment [1] (1000 nM), 0.253 ± 0.018.

In the case of HS57T BREAST, the surviving fraction with ETOPOSIDE (0.5 nM) turned out to be 1.02 ± 0.016; in the experiment with ETOPOSIDE (1 nM) it was 0.967 ± 0.049; in the experiment with ETOPOSIDE (5 nM), 1.01 ± 0.02; with ETOPOSIDE (10 nM), 1.06 ± 0.069; in the experiment with ETOPOSIDE (50 nM), 1.09 ± 0.055; in the experiment with ETOPOSIDE (100 nM), 0.909 ± 0.06. The surviving fraction with ETOPOSIDE (500 nM) was found to be 0.409 ± 0.048; with ETOPOSIDE (1000 nM), 0.288 ± 0.017; in experiment [1] (0.5 nM), 0.895 ± 0.062; in experiment [1] (1 nM), 0.685 ± 0.022; in experiment [1] (5 nM), 0.366 ± 0.02; in experiment [1] (10 nM), 0.305 ± 0.019. The surviving fraction in experiment [1] (50 nM) turned out to be 0.287 ± 0.018; in experiment [1] (100 nM) it was 0.255 ± 0.0075; in experiment [1] (500 nM) it was 0.151 ± 0.02; in experiment [1] (1000 nM), 0.0643 ± 0.0085.

As to HS578T BREAST, the surviving fraction worked out at 0.878 ± 0.18 with ETOPOSIDE (0.5 nM); 0.849 ± 0.12 in the experiment with ETOPOSIDE (1 nM); 0.831 ± 0.2 with ETOPOSIDE (5 nM); 0.789 ± 0.079 with ETOPOSIDE (10 nM); 0.95 ± 0.11 with ETOPOSIDE (50 nM); 0.751 ± 0.064 in the experiment with ETOPOSIDE (100 nM). The surviving fraction with ETOPOSIDE (500 nM) worked out at 0.59 ± 0.064; with ETOPOSIDE (1000 nM), 0.372 ± 0.029; in experiment [1] (0.5 nM) it was 0.767 ± 0.024; in experiment [1] (1 nM) it was 0.713 ± 0.019; in experiment [1] (5 nM), 0.506 ± 0.064; in experiment [1] (10 nM), 0.504 ± 0.05. In addition, the surviving fraction was 0.374 ± 0.056 in experiment [1] (50 nM), 0.37 ± 0.049 in experiment [1] (100 nM), 0.186 ± 0.029 in experiment [1] (500 nM) and 0.095 ± 0.013 in experiment [1] (1000 nM).

For the test system HSSYII SYNOVIAL, the surviving fraction with ETOPOSIDE (0.5 nM) stood at 0.995 ± 0.045; with ETOPOSIDE (1 nM), 0.972 ± 0.068; in the experiment with ETOPOSIDE (5 nM) it was 0.968 ± 0.049; in the experiment with ETOPOSIDE (10 nM), 0.971 ± 0.018; in the experiment with ETOPOSIDE (50 nM), 0.7943 ± 0.0045; in the experiment with ETOPOSIDE (100 nM), 0.59 ± 0.026. Moreover, the surviving fraction was 0.116 ± 0.0062 in the experiment with ETOPOSIDE (500 nM); 0.0892 ± 0.0041 with ETOPOSIDE (1000 nM); 0.679 ± 0.029 in experiment [1] (0.5 nM); 0.789 ± 0.13 in experiment [1] (1 nM); 0.271 ± 0.021 in experiment [1] (5 nM); 0.281 ± 0.0072 in experiment [1] (10 nM). Further, the surviving fraction stood at 0.216 ± 0.007 in experiment [1] (50 nM), 0.215 ± 0.018 in experiment [1] (100 nM), 0.0975 ± 0.0058 in experiment [1] (500 nM) and 0.138 ± 0.0053 in experiment [1] (1000 nM).

Consider HT1080 SOFT TISSUE, for which the surviving fraction in the experiment with ETOPOSIDE (0.5 nM) is 1.02 ± 0.028; with ETOPOSIDE (1 nM), 0.995 ± 0.026; with ETOPOSIDE (5 nM) it was 0.951 ± 0.02; in the experiment with ETOPOSIDE (10 nM) it was 0.94 ± 0.015; with ETOPOSIDE (50 nM), 0.616 ± 0.046; with ETOPOSIDE (100 nM) it was 0.467 ± 0.0051. Moreover, the surviving fraction with ETOPOSIDE (500 nM) was 0.217 ± 0.021; with ETOPOSIDE (1000 nM), 0.222 ± 0.0056; in experiment [1] (0.5 nM) it was 0.98 ± 0.024; in experiment [1] (1 nM), 0.859 ± 0.018; in experiment [1] (5 nM) it was 0.295 ± 0.0038; in experiment [1] (10 nM), 0.249 ± 0.013. The surviving fraction in experiment [1] (50 nM) came out at 0.194 ± 0.0046; in experiment [1] (100 nM), 0.171 ± 0.0076; in experiment [1] (500 nM) it was 0.111 ± 0.015; in experiment [1] (1000 nM) it was 0.087 ± 0.0078.
